Source: article PMC7614683, “A small molecule PI3Kα activator for cardioprotection and neuroregeneration” (Nature, 2023)
Read-outs that look alike come from different tables or passages of the source.

What was measured:
Assay in all cases: SelectScreen Z-LYTE kinase activity assay (SI Table 6)
Assay type in all cases: biochemical
[1] = molecular target: protein kinases of the Z-LYTE panel (Homo sapiens, UniProt P49841)
In short: (§1)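 Compound 1938 counterscreened at 1 μM against 133 protein and 7 lipid kinases in the SelectScreen panel, using Adapta, LanthaScreen binding and Z-LYTE formats as applicable.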

[2] = molecular target: T1, protein kinases of the Z-LYTE panel (Homo sapiens, UniProt Q13976)
T1 sequence (Q13976 1-671): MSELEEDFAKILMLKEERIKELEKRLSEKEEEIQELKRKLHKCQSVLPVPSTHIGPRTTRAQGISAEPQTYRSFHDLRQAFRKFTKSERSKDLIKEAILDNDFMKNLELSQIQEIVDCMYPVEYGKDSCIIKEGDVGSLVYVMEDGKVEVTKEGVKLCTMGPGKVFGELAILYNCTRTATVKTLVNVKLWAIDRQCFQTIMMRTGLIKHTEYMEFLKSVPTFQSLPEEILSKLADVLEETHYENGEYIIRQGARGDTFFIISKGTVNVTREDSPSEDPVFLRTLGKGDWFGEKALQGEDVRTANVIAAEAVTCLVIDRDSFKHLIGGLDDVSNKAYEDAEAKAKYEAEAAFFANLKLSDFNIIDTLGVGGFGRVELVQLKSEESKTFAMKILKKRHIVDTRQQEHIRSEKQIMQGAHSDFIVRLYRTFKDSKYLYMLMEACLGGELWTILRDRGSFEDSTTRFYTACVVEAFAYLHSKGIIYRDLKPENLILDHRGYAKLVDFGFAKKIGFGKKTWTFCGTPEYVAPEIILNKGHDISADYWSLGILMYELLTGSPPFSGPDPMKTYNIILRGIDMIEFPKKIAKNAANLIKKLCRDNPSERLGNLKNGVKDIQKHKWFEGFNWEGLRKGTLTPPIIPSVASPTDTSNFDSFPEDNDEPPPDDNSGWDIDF
In short: as §1

[3] = molecular target: protein kinases of the Z-LYTE panel (Homo sapiens, UniProt P24941)
In short: as §1

[4] = molecular target: protein kinases of the Z-LYTE panel (Homo sapiens, UniProt Q15418)
In short: as §1

[5] = molecular target: protein kinases of the Z-LYTE panel (Homo sapiens, UniProt P17252)
In short: as §1

[6] = molecular target: protein kinases of the Z-LYTE panel (Homo sapiens, UniProt P07949)
In short: as §1

protein kinases of the Z-LYTE panel (Homo sapiens, UniProt Q15418), sequence (Q15418 whole entry): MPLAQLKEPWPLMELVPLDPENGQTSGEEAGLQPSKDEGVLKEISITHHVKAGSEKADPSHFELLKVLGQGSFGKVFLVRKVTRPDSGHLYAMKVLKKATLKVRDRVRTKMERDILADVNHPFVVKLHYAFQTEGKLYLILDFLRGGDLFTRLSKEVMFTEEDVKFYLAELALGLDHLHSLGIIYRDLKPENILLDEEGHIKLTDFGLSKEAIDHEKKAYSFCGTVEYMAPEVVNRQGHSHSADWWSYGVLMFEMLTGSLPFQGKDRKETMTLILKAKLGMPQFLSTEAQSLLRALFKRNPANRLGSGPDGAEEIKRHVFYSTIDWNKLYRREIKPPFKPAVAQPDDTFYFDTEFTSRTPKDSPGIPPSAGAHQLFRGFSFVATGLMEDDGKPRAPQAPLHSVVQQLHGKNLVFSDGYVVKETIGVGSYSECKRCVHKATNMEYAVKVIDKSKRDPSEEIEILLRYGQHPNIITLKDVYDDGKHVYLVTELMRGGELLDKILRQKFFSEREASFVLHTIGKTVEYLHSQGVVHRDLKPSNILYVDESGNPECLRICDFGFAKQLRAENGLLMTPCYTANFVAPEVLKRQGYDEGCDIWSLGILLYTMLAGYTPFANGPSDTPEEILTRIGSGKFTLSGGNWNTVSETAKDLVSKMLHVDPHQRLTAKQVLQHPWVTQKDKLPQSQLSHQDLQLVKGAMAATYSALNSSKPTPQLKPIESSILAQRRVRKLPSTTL
protein kinases of the Z-LYTE panel (Homo sapiens, UniProt P49841), sequence (P49841 whole entry): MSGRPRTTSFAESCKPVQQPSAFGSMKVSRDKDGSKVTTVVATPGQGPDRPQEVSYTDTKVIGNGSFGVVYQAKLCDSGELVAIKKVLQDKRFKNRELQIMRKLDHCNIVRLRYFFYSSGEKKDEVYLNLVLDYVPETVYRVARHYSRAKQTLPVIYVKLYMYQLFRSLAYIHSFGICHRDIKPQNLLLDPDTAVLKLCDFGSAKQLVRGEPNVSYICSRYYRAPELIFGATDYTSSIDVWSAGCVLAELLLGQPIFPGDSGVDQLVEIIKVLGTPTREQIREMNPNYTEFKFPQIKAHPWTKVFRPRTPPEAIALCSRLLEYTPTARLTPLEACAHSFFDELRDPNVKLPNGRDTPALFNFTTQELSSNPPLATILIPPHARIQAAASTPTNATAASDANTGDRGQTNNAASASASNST
protein kinases of the Z-LYTE panel (Homo sapiens, UniProt P07949), sequence (P07949 29-1114): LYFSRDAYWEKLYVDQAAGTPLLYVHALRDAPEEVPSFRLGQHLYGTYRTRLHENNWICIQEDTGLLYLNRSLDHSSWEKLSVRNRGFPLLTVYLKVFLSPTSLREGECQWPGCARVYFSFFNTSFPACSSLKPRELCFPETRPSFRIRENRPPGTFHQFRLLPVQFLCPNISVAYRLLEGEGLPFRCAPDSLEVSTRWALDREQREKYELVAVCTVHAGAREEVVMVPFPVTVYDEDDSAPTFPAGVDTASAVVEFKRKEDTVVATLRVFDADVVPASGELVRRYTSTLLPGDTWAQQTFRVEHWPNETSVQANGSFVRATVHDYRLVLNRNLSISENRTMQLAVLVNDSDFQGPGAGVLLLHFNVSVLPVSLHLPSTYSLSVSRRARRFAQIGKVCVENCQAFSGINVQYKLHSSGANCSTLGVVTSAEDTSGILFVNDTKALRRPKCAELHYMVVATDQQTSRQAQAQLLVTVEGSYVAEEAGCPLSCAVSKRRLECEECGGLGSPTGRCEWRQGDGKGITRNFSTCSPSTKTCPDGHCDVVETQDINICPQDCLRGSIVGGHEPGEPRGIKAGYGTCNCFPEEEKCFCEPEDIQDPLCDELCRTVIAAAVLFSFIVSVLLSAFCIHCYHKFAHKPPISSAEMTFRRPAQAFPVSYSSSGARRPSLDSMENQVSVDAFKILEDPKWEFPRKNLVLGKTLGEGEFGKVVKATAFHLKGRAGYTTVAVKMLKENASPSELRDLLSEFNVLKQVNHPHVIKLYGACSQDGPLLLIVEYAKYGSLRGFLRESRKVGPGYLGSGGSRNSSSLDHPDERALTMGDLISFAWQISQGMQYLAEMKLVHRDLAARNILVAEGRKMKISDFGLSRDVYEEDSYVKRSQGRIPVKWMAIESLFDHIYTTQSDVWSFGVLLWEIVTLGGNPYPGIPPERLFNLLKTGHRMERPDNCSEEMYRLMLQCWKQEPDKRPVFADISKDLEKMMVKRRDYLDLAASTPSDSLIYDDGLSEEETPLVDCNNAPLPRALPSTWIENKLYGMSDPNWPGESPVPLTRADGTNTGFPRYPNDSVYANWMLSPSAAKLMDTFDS

CCN1CCN(c2ccc(Nc3cc(Nc4cccc5c4N(C(C)=O)CC5)ccn3)cc2)CC1 [Compound 1938]
inhibition at 1 µM ([1]; read-out: % Inhibition Point 1): 5.38%
inhibition at 1 µM ([1]; read-out: % Inhibition Point 2): 5%
inhibition at 1 µM ([1]; read-out: % Inhibition mean): 5%
inhibition at 1 µM ([2]; read-out: % Inhibition Point 1): 4.68%
inhibition at 1 µM ([2]; read-out: % Inhibition Point 2): -0.193%
inhibition at 1 µM ([2]; read-out: % Inhibition mean): 2.24%
inhibition at 1 µM ([3]; read-out: % Inhibition Point 1): 1.74%
inhibition at 1 µM ([3]; read-out: % Inhibition Point 2): 3.28%
inhibition at 1 µM ([3]; read-out: % Inhibition mean): 2.51%
inhibition at 1 µM ([4]; read-out: % Inhibition Point 1): 6%
inhibition at 1 µM ([4]; read-out: % Inhibition Point 2): 5.47%
inhibition at 1 µM ([4]; read-out: % Inhibition mean): 6%
inhibition at 1 µM ([5]; read-out: % Inhibition Point 1): 13%
inhibition at 1 µM ([5]; read-out: % Inhibition Point 2): 12%
inhibition at 1 µM ([5]; read-out: % Inhibition mean): 13%
inhibition at 1 µM ([6]; read-out: % Inhibition Point 1): 15%
inhibition at 1 µM ([6]; read-out: % Inhibition Point 2): 15%
inhibition at 1 µM ([6]; read-out: % Inhibition mean): 15%
